Assays:
Type in all cases: cell-based
[1] = test system: MDA-MB-468; assay: SRB cell viability/proliferation; settings: Homo sapiens
Experimental: (§1) and MCF10AT1 cells were cultured in Dulbecco's Modified Eagle's Medium/Ham's Nutrient Mixture F-12 (DME/F12) supplemented with 10% (volume/volume) FBS , 100 μg/ml streptom ycin and 100 units/ml penicillin, antim ycotic solution, 0.5 μg/ml hydrocortisone, 10 ng/ml human epiderm al growth factor (hEGF) and 5 μg/ml insulin, whereas MCF10CA1a cell line was cultured in DM EM supplemented with 10% FBS (volume/volume). KB-3- 1, parental human epidermoid carcinoma cell line and KB-C2, an isogenic MDR1- overexpressing drug-resistant cell line, were kindl y provided b y Dr. Amit K Tiwari, the Universit y of Toledo, OH.
(§2) Parental HEK293 and M RP1- overexpressing HEK293- MRP1 isogenic cel ls were kind gifts of Dr. Susan Cole (Queen’s Universit y, Kingston, Ontario, Canada). The pacl itaxel-resistant MDA-MB-231TaxR cell line was generated in house b y culturing MDA-MB-231 cells (purchased from ATCC and authen ticated ) in the gradual l y incr easi ng con centr ations of pacl itax el until the concentration reached to 100 nM. Cell line authentication was carried out by Genetica DNA Laboratories (Burlington, NC) using a short tandem repeat (STR) profiling method (March 2015; […]
(§3) Cell cycl e pro gr ession in the absence (sham) o r pr esence o f compound(s ) was determined with a Beckman Coulter Epics Elite FC 500 Flow C ytom eter as described previousl y (Romero

[2] = test system: U87MG; assay: SRB cell viability/proliferation; settings: Homo sapiens, U-87 MG
Experimental: as §1, §2, §3

[3] = test system: COLO 205; assay: NCI-60 SRB screen; settings: 1.00E-5 Molar
Excerpt: (§4) Supplementary Table S 3: Antitumor activity of CTR -17 and CTR -20, alone or in combination […]
(§5) a Tax: paclitaxel. b mg per kg of bod y wei ght. c unit is mm 3.
(§6) Supplementary Figure l egend
(§7) 10μ M of CTR-20 was used to examine the drug’s efficac y against the NC I-60 cancer cell li nes including: six leukemia cell lines, nine non- small cell lung cancer cell lines, seven color ect al cancer cell lines, six CNS cancer cell lines, nine melanoma cell lines, seven ovari an can cer cell lines, seven ren al can cer cell lines, two prostate cancer cell lines and six breast cancer cell lines. The scr eenin g was car r ied out b y the US National Cancer Institute (NC I) us i n g a sulforhodamine B (SRB) colorimetric assay. […]
(§8) out by the NC I using five different doses of CTR -20.

[4] = test system: MOLT-4; assay: NCI-60 SRB screen
Excerpt: as §4, §5, §6, §7, §8

[5] = test system: SNB-75; assay: NCI-60 SRB screen
Excerpt: as §4, §5, §6, §7, §8

[6] = Homo sapiens, read-out: LC50 (the source's name)

COc1ccc2[nH]c(=O)c(/C=C/C(=O)c3ccccc3OC)cc2c1 [CTR-20, (E)-6-Methoxy-3-(3-(2-methoxyphenyl)-3-oxoprop-1-enyl) quinolin-2(1H)-one]
IC50 [1]: 120 nM
IC50 [2]: 1110 nM
Growth Percent [3]: 20.45%
Log10GI50 [4]: -6.38 Molar
Log10LC50 [4]: > -4.00 Molar
Log10TGI [4]: -4.57 Molar
TGI [4]: 2.71E-5 Molar
Growth Percent ([4]; 1.00E-5 Molar): 10.88%
GI50 ([4]; Homo sapiens): 421 nM
CC50 [4, 6]: > 100000 nM
Percent Growth ([4]; Log10 Concentration -4.0): -12%
Percent Growth ([4]; Log10 Concentration -5.0): 9%
Percent Growth ([4]; Log10 Concentration -6.0): 21%
Percent Growth ([4]; Log10 Concentration -7.0): 98%
Percent Growth ([4]; Log10 Concentration -8.0): 97%
Log10GI50 [5]: -6.33 Molar
Log10LC50 [5]: -4.42 Molar
Log10TGI [5]: -4.85 Molar
TGI [5]: 1.42E-5 Molar
Growth Percent ([5]; 1.00E-5 Molar): -11.48%
GI50 ([5]; Homo sapiens): 470 nM
CC50 [5, 6]: 37800 nM
Percent Growth ([5]; Log10 Concentration -4.0): -100%
Percent Growth ([5]; Log10 Concentration -5.0): 18%
Percent Growth ([5]; Log10 Concentration -6.0): 34%
Percent Growth ([5]; Log10 Concentration -7.0): 82%
Percent Growth ([5]; Log10 Concentration -8.0): 86%

Source: publication PMC5578999, “Novel quinolone chalcones targeting colchicine-binding pocket kill multidrug-resistant cancer cells by inhibiting tubulin activity and MRP1 function” (Scientific Reports, 2017)
